Data as given in ChEMBL document CHEMBL1201862, “PubChem BioAssay data set” (2004).
Active and inactive are the calls of the source.

Key:
[1] = inhibitors of firefly luciferase expression or activity, dose response, H4 neuroglioma cells, luminescence (AID 1990); assay type: functional, cell-based
[2] = test system: Streptococcus sp. 'group A'; experiment: growth inhibition of control SK(-) GAS strain, dose response, counter-screen for streptokinase expression inhibitor project, luminescence, kanamycin, BacTiterGlo, confirmation (AID 1900); assay type: functional, organism-based
[3] = Luminescence Cell-Based Dose Response HTS to Identify Inhibitors of 5'UTR Stem-Loop Driven Prion Protein mRNA Translation in H4 Neuroglioblastoma Cells. [Related pubchem assays: 1827 (Project Summary), 1813 (Primary HTS)]; assay type: functional
[4] = inhibitors of SNCA 5'UTR-driven reporter translation, confirmation, H4 neuroglioma cells, luminescence (AID 1988); assay type: functional, cell-based
[5] = inhibitors of intracellular T. cruzi replication, confirmation, NIH3T3 host cells, beta-gal luminescence (AID 2044); assay type: functional, cell-based;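 also: intracellular parasites grown in NIH/3T3 mouse fibroblasts as host cells; luminescent beta-galactosidase reporter signal from transgenic T. cruzi replicating inside host cells; inhibitors lower the luminescence signal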
[6] = cytotoxicity toward NIH3T3 fibroblasts, dose response, counter-screen, cell-based, ATP luminescence, mouse fibroblasts (AID 2010); assay type: functional;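 also: cells exposed to compound for about 90 hours before reading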
Streptococcus = experiment: Group A Streptococcus viability loss, dose response, counter-screen for streptokinase expression inhibitor project, luminescence, BacTiterGlo (AID 1915); assay type: functional, organism-based;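 also: potency for reduction of bacterial viability or growth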
[7] = target: T1, Replicative DNA helicase DnaB (Mycobacterium tuberculosis, UniProt P9WMR3); experiment: DnaB intein splicing inhibitors, dose response, biochemical, cell-free fluorescence (AID 449749); assay type: functional
T1 sequence (P9WMR3 whole entry): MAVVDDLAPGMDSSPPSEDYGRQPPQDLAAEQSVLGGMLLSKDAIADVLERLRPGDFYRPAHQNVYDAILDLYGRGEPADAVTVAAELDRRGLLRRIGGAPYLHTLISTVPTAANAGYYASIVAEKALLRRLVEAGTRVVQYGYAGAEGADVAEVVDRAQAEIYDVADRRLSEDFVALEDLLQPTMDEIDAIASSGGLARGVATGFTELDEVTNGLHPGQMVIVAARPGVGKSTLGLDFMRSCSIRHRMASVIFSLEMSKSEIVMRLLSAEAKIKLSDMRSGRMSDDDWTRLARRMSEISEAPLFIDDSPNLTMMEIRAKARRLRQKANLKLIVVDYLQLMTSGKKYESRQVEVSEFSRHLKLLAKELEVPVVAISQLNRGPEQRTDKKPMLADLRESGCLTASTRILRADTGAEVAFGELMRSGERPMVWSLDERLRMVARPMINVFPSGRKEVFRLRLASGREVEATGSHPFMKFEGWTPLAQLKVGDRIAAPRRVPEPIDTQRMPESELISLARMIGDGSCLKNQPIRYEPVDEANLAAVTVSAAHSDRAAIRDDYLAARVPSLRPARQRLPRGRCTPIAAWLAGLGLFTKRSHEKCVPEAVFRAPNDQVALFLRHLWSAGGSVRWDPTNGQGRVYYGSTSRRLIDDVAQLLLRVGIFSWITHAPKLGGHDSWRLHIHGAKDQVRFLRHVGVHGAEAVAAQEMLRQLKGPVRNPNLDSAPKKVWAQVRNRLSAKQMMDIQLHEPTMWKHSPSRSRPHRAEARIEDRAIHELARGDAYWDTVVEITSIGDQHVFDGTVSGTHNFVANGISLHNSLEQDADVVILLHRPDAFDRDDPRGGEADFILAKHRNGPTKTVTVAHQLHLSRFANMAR

[8] = target: T2, Apoptotic protease-activating factor 1 (Homo sapiens, UniProt O14727); assay type: functional
T2 sequence (O14727 whole entry): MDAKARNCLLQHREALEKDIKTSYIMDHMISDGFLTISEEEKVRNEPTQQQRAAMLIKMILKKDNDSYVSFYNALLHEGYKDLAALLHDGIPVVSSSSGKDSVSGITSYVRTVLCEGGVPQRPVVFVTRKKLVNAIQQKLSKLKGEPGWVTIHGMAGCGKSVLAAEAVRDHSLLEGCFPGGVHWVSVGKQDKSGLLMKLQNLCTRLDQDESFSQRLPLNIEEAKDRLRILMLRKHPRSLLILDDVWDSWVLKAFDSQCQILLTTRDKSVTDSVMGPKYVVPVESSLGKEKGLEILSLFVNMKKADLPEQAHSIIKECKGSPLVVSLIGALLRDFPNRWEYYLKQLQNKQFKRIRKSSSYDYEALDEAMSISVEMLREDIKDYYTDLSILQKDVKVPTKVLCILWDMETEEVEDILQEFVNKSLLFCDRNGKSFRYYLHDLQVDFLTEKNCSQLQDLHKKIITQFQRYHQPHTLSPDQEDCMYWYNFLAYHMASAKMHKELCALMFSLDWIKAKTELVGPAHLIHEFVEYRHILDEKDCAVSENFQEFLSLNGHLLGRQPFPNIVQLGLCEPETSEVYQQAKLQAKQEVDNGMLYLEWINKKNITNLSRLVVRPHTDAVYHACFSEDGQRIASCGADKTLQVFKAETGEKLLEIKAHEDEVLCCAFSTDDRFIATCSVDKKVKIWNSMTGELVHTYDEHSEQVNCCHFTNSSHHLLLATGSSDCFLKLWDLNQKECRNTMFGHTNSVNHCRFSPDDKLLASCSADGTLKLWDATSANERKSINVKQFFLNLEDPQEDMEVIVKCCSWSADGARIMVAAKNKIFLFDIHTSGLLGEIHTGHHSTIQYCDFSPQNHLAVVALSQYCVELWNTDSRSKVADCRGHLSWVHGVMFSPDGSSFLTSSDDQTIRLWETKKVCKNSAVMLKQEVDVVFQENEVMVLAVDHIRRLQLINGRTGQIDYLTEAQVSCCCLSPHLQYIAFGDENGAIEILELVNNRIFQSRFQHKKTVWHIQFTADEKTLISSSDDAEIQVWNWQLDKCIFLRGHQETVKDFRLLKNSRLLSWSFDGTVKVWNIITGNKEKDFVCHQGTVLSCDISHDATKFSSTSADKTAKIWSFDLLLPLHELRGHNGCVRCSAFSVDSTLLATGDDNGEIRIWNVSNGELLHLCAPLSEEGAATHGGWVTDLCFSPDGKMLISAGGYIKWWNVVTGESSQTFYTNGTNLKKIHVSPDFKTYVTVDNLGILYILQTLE

Protein RecA = target: T3, Protein RecA (Mycobacterium tuberculosis, UniProt P9WHJ3); experiment: Fluorescence Cell-Free Homogeneous Dose Retest to Identify Inhibitors of RecA-Intein Splicing Activity. [Related pubchem assays (depositor defined):AID2097, AID2223, AID489010, AID492950]; assay type: functional
T3 sequence (P9WHJ3 whole entry): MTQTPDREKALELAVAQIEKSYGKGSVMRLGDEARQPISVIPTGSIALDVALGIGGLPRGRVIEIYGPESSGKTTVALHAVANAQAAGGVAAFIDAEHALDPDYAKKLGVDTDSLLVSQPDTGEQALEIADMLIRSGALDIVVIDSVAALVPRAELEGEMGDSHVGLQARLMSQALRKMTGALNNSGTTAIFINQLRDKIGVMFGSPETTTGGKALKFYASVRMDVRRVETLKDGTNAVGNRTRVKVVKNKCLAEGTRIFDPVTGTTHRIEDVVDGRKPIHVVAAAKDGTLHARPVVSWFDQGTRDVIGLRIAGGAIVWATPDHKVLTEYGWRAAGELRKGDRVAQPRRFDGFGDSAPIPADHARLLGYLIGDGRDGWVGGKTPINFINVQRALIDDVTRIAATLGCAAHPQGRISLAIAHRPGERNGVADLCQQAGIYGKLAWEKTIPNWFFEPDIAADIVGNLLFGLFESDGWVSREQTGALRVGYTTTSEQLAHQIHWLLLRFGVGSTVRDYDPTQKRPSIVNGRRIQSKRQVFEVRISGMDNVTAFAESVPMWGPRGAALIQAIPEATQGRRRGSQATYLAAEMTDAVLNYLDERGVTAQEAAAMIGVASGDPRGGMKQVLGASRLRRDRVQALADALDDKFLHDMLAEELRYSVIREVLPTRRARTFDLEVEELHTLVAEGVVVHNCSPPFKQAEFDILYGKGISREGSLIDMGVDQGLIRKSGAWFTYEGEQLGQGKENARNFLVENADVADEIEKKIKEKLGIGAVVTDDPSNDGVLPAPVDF

[9] = Artemis endonuclease inhibitor potency, dose response, biochemical, fluorescence intensity (AID 720701); assay type: functional;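 also: Artemis endonuclease enzyme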
[10] = P. falciparum late gametocyte killing, dose response, luminescence (AID 1117278); assay type: functional, cell-based;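 also: gametocytes exposed to compound for 24 hours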
[11] = Jurkat T cell cytotoxicity, dose response, cytotoxicity control for P. falciparum gametocyte viability project, luminescence (AID 1117277); assay type: functional, cell-based;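 also: potency reflects loss of cellular ATP meaning fewer viable cells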
Large T antigen = Large T antigen (Simian virus 40, UniProt P03070); assay type: functional, Betapolyomavirus macacae;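 also: Confirmatory-stage PubChem screen for compounds that inhibit SV40 T antigen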
Protein Tat = Protein Tat (Human immunodeficiency virus type 1 group M subtype B (isolate HXB2)(HIV-1), UniProt P04608); assay type: functional;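 also: tat binding to TAR RNA read out by fluorescence polarization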
Estrogen receptor = target: T4, Estrogen receptor (Homo sapiens, UniProt P03372);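 also: potency for inhibiting coactivator peptide recruitment to the receptor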
T4 sequence (P03372 whole entry): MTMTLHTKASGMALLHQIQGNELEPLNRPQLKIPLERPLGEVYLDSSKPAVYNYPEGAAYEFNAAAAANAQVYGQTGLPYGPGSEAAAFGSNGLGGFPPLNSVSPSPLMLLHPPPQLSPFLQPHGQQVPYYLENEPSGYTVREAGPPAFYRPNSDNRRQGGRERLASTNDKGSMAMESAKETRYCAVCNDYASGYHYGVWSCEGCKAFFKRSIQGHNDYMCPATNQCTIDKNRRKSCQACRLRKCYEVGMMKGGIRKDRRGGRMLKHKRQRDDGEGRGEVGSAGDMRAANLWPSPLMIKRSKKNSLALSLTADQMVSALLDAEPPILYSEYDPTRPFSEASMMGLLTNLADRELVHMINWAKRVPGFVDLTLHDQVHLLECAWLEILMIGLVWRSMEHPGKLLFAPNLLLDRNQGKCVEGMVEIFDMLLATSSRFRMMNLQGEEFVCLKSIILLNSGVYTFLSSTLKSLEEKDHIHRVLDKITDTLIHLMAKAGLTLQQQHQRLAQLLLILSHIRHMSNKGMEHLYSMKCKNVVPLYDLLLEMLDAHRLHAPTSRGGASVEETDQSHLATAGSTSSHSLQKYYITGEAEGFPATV

[12] = Dose-response inhibition of insulin secretion in a rat insulinoma line at 5 mM glucose (AID 1117331); assay type: functional, cell-based; conditions: INS-1E
[13] = half-maximal inhibitory concentration for glucagon-like peptide-1 release, STC-1 cell line, dose-response (AID 1117345); assay type: functional, cell-based
[14] = Glucagon-like peptide 1 release potency, NCI-H716 cell line, dose-response, half-maximal inhibitory concentration (AID 1117344); assay type: functional, cell-based
[15] = fibronectin fibrillogenesis inhibitors in fibroblasts, dose response, AH1F cells, Alexa488-fibronectin fluorescence, cherry-pick, set 2 (AID 1117283); assay type: functional, cell-based

Protein Tat, sequence (P04608 whole entry): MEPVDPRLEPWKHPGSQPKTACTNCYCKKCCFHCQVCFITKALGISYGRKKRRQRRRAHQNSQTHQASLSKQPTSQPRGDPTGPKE
Large T antigen, sequence (P03070 whole entry): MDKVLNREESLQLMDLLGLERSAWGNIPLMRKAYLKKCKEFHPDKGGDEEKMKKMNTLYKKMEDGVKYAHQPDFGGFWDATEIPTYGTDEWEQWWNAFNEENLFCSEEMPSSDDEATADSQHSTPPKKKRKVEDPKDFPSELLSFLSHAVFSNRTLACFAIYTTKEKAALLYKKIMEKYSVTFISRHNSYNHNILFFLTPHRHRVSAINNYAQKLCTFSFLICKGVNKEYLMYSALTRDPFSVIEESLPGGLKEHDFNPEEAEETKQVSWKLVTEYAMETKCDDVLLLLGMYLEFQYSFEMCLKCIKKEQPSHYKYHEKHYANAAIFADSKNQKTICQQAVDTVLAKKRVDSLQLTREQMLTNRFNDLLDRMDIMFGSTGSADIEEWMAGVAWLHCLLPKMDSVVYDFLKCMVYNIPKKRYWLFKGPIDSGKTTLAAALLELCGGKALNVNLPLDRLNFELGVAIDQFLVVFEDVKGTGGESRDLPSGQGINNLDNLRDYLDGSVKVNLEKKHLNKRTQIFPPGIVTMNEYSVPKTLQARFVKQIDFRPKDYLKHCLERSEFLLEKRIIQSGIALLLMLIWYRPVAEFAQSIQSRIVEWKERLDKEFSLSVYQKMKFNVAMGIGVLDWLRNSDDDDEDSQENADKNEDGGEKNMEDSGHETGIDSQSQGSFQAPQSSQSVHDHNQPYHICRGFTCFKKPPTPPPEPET

SMILES: O=C1c2ccccc2C(=O)c2c1oc(C(F)(F)F)c2C(=O)c1ccccc1
- EC50 [1]: 6.73 µM (active)
- EC50 [2]: 2.11 µM (active)
- EC50 [3]: 7.26 µM (active)
- EC50 [4]: 3.37 µM (active)
- EC50 [5]: 1.76 µM (active)
- EC50 [6]: > 60 µM (not active)
- EC50 (Streptococcus): 2.41 µM (active)
- AC50 [7]: > 380 µM (inconclusive)
- IC50 [8]: 4.72 µM (active)
- EC50 (Protein RecA): 15.3 µM (active)
- IC50 [9]: > 20 µM (inactive)

SMILES: O=C(Cc1ccc(-c2ccccc2)cc1)NC(c1ccccc1)c1ccccc1
- IC50 [10]: > 109 µM (inactive)
- IC50 [11]: > 83.3 µM (inactive)

SMILES: NC(=O)c1ccc(N2CCN(c3ccc(O)cc3)CC2)c([N+](=O)[O-])c1
- IC50 (Large T antigen): 8.31 µM (active)
- IC50 (Protein Tat): > 100 µM (active)

SMILES: CC(=O)c1cccc(NC(=O)CN2C(=O)NC3(CCCCCCC3)C2=O)c1
- IC50 (Estrogen receptor): 48.2 µM (not active)
- IC50 (Protein Tat): > 100 µM (active)

SMILES: Cc1cc(O)c2c(O)c3c(O)cccc3cc2c1
- IC50 [12]: > 33.3 µM (inactive)
- IC50 [13]: 11.3 µM (inactive)
- IC50 [14]: > 20 µM (inactive)

SMILES: C[C@H](O)C#Cc1ccc2c(c1)O[C@H](CN(C)C)[C@@H](C)CN([C@@H](C)CO)S2(=O)=O
- AC50 [15]: > 70 µM (inactive)
